Measurements published in patent US9890166B2, “Imidazopyrrolidine derivatives and their use in the treatment of disease” (NOVARTIS AG, priority 2013, dated 2018).

How the values were obtained:
[1] = target: BRD2 (His-Brd2(60-472)) (Homo sapiens (Human), UniProt P25440); assay: TR-FRET in-vitro binding assay for BRD2; conditions: single determination or n ≧ 2 independent determinations, read-out: Biochemical IC50 BRD2
Method in brief: (§1)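 His-tagged BRD2, BRD3 and BRD4 fragments tested by TR-FRET at 8 compound concentrations, with DMSO stocks at 10 mM. Read on EnVision after 35 min incubation at 30° C.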

[2] = target: CREBBP bromodomain (His-CREBBP(1081-1197)) (Homo sapiens (Human), UniProt Q92793); assay: AlphaScreen in-vitro binding assay for CREBBP; conditions: single determination or n ≧ 2 independent determinations, read-out: Biochemical IC50 CREBBP
Method in brief: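 Detection used nickel-chelate acceptor plus streptavidin donor AlphaScreen beads, 1 h room temperature. Percent inhibition fitted by non-linear regression to IC50.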

[3] = target: nuclear BRD4-NUT foci in HCC2494 NUT midline carcinoma cells (Homo sapiens, UniProt O60885); assay: cell-based
[4] = target: BRD4 (His-Brd4(44-477)) (Homo sapiens (Human), UniProt O60885); assay: TR-FRET in-vitro binding assay for BRD4; conditions: single determination or n ≧ 2 independent determinations, read-out: Biochemical IC50 BRD4
Method in brief: as §1

[5] = tested on: K-562 cells; assay: Cell growth inhibition assay (CellTiter-Glo), K-562; conditions: for GI50: Homo sapiens, K562, read-out: K-562 GI50; for K-562 TGI: K-562 cells, total growth inhibition, CellTiter-Glo;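 on all read-outs here: cellular ATP measured by luminescence after 4 days of exposure, 3-fold dilution series from 10 µM, DMSO vehicle-treated cells define 100%, cell-free medium wells −100%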
[6] = target: BRD3 (His-Brd3(20-477)) (Homo sapiens (Human), UniProt Q15059); assay: TR-FRET in-vitro binding assay for BRD3; conditions: single determination or n ≧ 2 independent determinations, read-out: Biochemical IC50 BRD3
Method in brief: as §1

[7] = tested on: MV-4-11 cells; assay: Cell growth inhibition assay (CellTiter-Glo), MV-4-11; conditions: for GI50: Homo sapiens, MV4-11, read-out: MV-4-11 GI50; for MV-4-11 TGI: MV-4-11 cells, total growth inhibition, CellTiter-Glo;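 on all read-outs here: cellular ATP luminescence after 4 days, 3-fold dilution series from 10 µM top dose, vehicle (0.1% DMSO) set to 100%, cell-free medium set to −100%, day 0 corrected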
[8] = tested on: THP-1 cells; assay: Cell growth inhibition assay (CellTiter-Glo), THP-1; conditions: for GI50: Homo sapiens, THP-1, read-out: THP-1 GI50; for THP-1 TGI: THP-1 cells, total growth inhibition, CellTiter-Glo;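 on all read-outs here: viability read as cellular ATP luminescence after 4 days, 3-fold dilution series from 10 µM, DMSO vehicle-treated cells taken as 100%, cell-free medium wells as −100%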

Chain of CREBBP bromodomain (His-CREBBP(1081-1197)) (Q92793 1081-1197): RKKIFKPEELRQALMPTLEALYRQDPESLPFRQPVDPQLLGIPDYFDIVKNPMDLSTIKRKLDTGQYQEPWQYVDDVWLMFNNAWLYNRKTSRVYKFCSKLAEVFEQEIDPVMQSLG
Chain of BRD2 (His-Brd2(60-472)) (P25440 60-472): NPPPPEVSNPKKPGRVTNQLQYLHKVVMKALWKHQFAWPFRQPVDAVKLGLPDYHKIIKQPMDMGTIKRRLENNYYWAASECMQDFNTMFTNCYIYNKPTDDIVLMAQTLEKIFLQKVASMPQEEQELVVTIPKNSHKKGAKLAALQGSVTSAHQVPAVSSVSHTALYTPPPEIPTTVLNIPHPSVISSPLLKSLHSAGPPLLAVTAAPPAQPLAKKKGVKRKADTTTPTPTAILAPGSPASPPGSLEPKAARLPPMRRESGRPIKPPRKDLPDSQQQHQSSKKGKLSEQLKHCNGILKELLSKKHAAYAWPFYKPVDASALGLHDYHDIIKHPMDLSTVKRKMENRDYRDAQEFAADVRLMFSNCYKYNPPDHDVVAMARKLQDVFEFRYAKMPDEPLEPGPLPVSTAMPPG
Chain of BRD3 (His-Brd3(20-477)) (Q15059 20-477): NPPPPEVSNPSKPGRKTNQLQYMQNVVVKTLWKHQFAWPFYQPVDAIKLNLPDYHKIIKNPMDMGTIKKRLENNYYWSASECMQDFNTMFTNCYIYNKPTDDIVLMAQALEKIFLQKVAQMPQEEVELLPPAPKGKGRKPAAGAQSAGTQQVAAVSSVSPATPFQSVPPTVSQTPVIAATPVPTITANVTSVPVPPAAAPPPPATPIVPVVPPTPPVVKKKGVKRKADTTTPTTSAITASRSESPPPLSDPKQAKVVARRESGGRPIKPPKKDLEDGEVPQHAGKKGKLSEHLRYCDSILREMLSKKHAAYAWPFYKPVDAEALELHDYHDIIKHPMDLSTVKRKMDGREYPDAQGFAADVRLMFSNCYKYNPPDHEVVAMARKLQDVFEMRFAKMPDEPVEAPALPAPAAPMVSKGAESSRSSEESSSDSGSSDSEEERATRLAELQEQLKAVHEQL

Row | Structure (SMILES) | IC50 [1] | IC50 [2] | IC50 [3] | IC50 [4] | GI50 [5] | K-562 TGI [5] | IC50 [6] | GI50 [7] | MV-4-11 TGI [7] | GI50 [8] | THP-1 TGI [8]
1 | Cc1cc(N2C(=O)c3nc(C4CC4)n(C)c3C2c2ccc(Cl)cc2)cn2c(C)nnc12 (centres unmarked) [Example 57, 6-(4-chlorophenyl)-2-cyclopropyl-5-(3,8-dimethyl-[1,2,4]triazolo[4,3-a]pyridin-6-yl)-1-methyl-5,6-dihydropyrrolo[3,4-d]imidazol-4(1H)-one] | < 11 nM | 5100 nM | 91.2 nM | < 11 nM | 572 nM | >10000 nM | < 11 nM | 40.5 nM | 68.8 nM | 83.6 nM | 193 nM
2 | Cc1cc(N2C(=O)c3c(nc(C)n3C(C)C)[C@H]2c2ccc(Cl)cc2)cc2c1nnn2C [Example 118, (R)-6-(4-chlorophenyl)-5-(3,7-dimethyl-3H-benzo[d][1,2,3]triazol-5-yl)-3-isopropyl-2-methyl-5,6-dihydropyrrolo[3,4-d]imidazol-4(3H)-one] | 14 nM | 1080 nM | 3.4 nM | < 11 nM | 28.4 nM | >10000 nM | 12 nM | 2.1 nM | 3.79 nM | 5.12 nM | 12.5 nM
3 | CCn1c(C)nc2c1C(=O)N(c1cc(C)c3nnn(C)c3c1)C2c1ccc(Cl)cc1 (centres unmarked) [Example 121, 6-(4-chlorophenyl)-5-(3,7-dimethyl-3H-benzo[d][1,2,3]triazol-5-yl)-3-ethyl-2-methyl-5,6-dihydropyrrolo[3,4-d]imidazol-4(3H)-one] | 29 nM | 4400 nM | 3.07 nM | 29 nM | 48.1 nM | >10000 nM | 27 nM | 10.8 nM | 20.9 nM | 9 nM | 20.1 nM
4 | COc1ncc(-c2nc3c([nH]2)C(c2ccc(Cl)cc2)N(c2cc(OC)c4nnc(C)n4c2)C3=O)c(OC)n1 (centres unmarked) [Example 127, 6-(4-chlorophenyl)-2-(2,4-dimethoxypyrimidin-5-yl)-5-(8-methoxy-3-methyl-[1,2,4]triazolo[4,3-a]pyridin-6-yl)-5,6-dihydropyrrolo[3,4-d]imidazol-4(1H)-one] | 360 nM | > 37000 nM | 408 nM | 120 nM | 1720 nM | >10000 nM | 480 nM | 209 nM | 317 nM | 377 nM | 966 nM
